Assay results taken from PubChem BioAssay (NCI).
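Exposure lasted 48 hours, with cells grown in 96-well plates and compounds tested at five concentrations. At the TGI there is no net growth.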

system: KM12 colon; assay: growth of human tumour cells (NCI), 48 h

| SMILES | TGI |
| --- | --- |
| O=C1N[C@@H](c2c[nH]c3cc(Br)ccc23)C(=O)N[C@H]1c1c[nH]c2cc(Br)ccc12 | > 100 µM |
| COc1ccccc1N1CCN(CCCN2/C(=C(\O)c3ccccc3)C(=O)c3c(C)cc(C)nc3S2(=O)=O)CC1 | > 100 µM |
| c1ccc2c(c1)nc1n2CNC1 | > 100 µM |
| Cc1ccc(C)c(COCCOCn2ccc(N)nc2=O)c1 | > 100 µM |
| CCOP(=O)(O)C1C(CO)OC(n2ccc(=O)[nH]c2=O)C1O (configuration not stated) | > 100 µM |
| O=C1NCCCNCCCNCCCNC(=O)c2cccc1n2 | > 100 µM |
| CSC1=N/C(=C\c2ccccc2)C(=O)N1CN1CCCCC1 | > 100 µM |
| COC(=O)C1=C(C(=O)OC)c2cc(OC)ccc2C(C(=S)N(C)C)S1 (configuration not stated) | > 100 µM |

system: MDA-MB-231 breast; assay: growth of human tumour cells (NCI), 48 h

| SMILES | TGI |
| --- | --- |
| Cc1ccc(N=Nc2c(C)c(C#N)c(=S)n(C3OC(CO)C(O)C(O)C3O)c2C)cc1 (configuration not stated) | 60 µM |
| C=C(CC[C@@H](C)[C@H]1CC[C@@]2(C)C3=C(CC[C@]12C)[C@@]1(C)CC[C@H](O)[C@@H](C)C1CC3)C(C)C (some centres not stated) | 2.74 µM |
| CC(=O)OCCOCn1cnc2c(Cl)nc(Cl)nc21 | 29 µM |
| COc1ccc(N2C(=O)c3cc(C)cnc3S2(=O)=O)cc1 | > 100 µM |
| CC(C)=CC(=O)C[C@H]1C(=O)O[C@@H]2C[C@H]3C(C)=CC(=O)[C@@H](O)[C@]3(C)[C@H]3[C@@]4(O)OC[C@]32[C@@H]1[C@@H](C)[C@H]4O | 0.381 µM |
| Cn1c(=O)c2[nH]c(CCCCC(=O)O)nc2n(C)c1=O | > 100 µM |
| Cc1cc(C)n(C2OC(CO)C(O)C(O)C2O)c(=S)c1C#N (configuration not stated) | > 100 µM |
| Cc1ccc(-c2c3nc(c(-c4ccc(C)cc4)c4ccc([nH]4)c(-c4ccc(OCC5COC(C)(C)O5)cc4)c4nc(c(-c5ccc(C)cc5)c5ccc2[nH]5)C=C4)C=C3)cc1 (configuration not stated) | > 31.6 µM |
| Cc1ccccc1N=Nc1ccc(N/N=C2/CCCNC2=O)c(C)c1 | > 100 µM |
| CCn1c2ccccc2n2c(=O)c3c(c(C#N)c12)CCCC3 | > 100 µM |
| CN(/N=C/c1ccc(OCc2cccc(COc3ccc(C=O)cc3)n2)cc1)c1cnn(-c2ccc(Cl)cc2Cl)c(=O)c1Cl | > 100 µM |
| CC12CCC([C@H](C(O)C3CCCCC3)C1=O)C2(C)C (some centres not stated) | > 100 µM |
| C=C1CC[C@H](O)C(C)(C)[C@@H]1CC/C(C)=C/CC/C=C(\C)CC/C=C(\C)CCC=C(C)C | > 100 µM |
| c1ccc(CSP234N5CCN2CCN3CCN4CC5)c(CSP234N5CCN2CCN3CCN4CC5)c1 | > 100 µM |
| COc1cc2c(cc1OC)CCc1cc(OC)c(OC)cc1CC2 | > 100 µM |
| COc1ccc(N2C(=O)C3ON(C(C(N)=O)c4ccccc4)C(c4cc5ccccc5c5ccccc45)C3C2=O)cc1 (configuration not stated) | > 50 µM |
| O=c1[nH]c(Nc2nc3ccccc3[nH]2)nc2c1CCC2 | 51.1 µM |
| O=C1N[C@@H](c2c[nH]c3cc(Br)ccc23)C(=O)N[C@H]1c1c[nH]c2cc(Br)ccc12 | 80.2 µM |
| COc1ccccc1N1CCN(CCCN2/C(=C(\O)c3ccccc3)C(=O)c3c(C)cc(C)nc3S2(=O)=O)CC1 | > 100 µM |
| c1ccc2c(c1)nc1n2CNC1 | > 100 µM |
| Cc1ccc(C)c(COCCOCn2ccc(N)nc2=O)c1 | > 100 µM |
| CCOP(=O)(O)C1C(CO)OC(n2ccc(=O)[nH]c2=O)C1O (configuration not stated) | > 100 µM |
| O=C1NCCCNCCCNCCCNC(=O)c2cccc1n2 | > 100 µM |
| CSC1=N/C(=C\c2ccccc2)C(=O)N1CN1CCCCC1 | > 100 µM |
| COC(=O)C1=C(C(=O)OC)c2cc(OC)ccc2C(C(=S)N(C)C)S1 (configuration not stated) | > 100 µM |

system: NCI-H460 lung; assay: growth of human tumour cells (NCI), 48 h

| SMILES | TGI |
| --- | --- |
| Cc1ccc(N=Nc2c(C)c(C#N)c(=S)n(C3OC(CO)C(O)C(O)C3O)c2C)cc1 (configuration not stated) | 91.3 µM |
| C=C(CC[C@@H](C)[C@H]1CC[C@@]2(C)C3=C(CC[C@]12C)[C@@]1(C)CC[C@H](O)[C@@H](C)C1CC3)C(C)C (some centres not stated) | 2.09 µM |
| CC(=O)OCCOCn1cnc2c(Cl)nc(Cl)nc21 | 35 µM |
| COc1ccc(N2C(=O)c3cc(C)cnc3S2(=O)=O)cc1 | > 100 µM |
| CC(C)=CC(=O)C[C@H]1C(=O)O[C@@H]2C[C@H]3C(C)=CC(=O)[C@@H](O)[C@]3(C)[C@H]3[C@@]4(O)OC[C@]32[C@@H]1[C@@H](C)[C@H]4O | 0.743 µM |
| Cn1c(=O)c2[nH]c(CCCCC(=O)O)nc2n(C)c1=O | > 100 µM |
| Cc1cc(C)n(C2OC(CO)C(O)C(O)C2O)c(=S)c1C#N (configuration not stated) | > 100 µM |
| Cc1ccc(-c2c3nc(c(-c4ccc(C)cc4)c4ccc([nH]4)c(-c4ccc(OCC5COC(C)(C)O5)cc4)c4nc(c(-c5ccc(C)cc5)c5ccc2[nH]5)C=C4)C=C3)cc1 (configuration not stated) | > 31.6 µM |
| Cc1ccccc1N=Nc1ccc(N/N=C2/CCCNC2=O)c(C)c1 | > 100 µM |
| CCn1c2ccccc2n2c(=O)c3c(c(C#N)c12)CCCC3 | > 100 µM |
| CN(/N=C/c1ccc(OCc2cccc(COc3ccc(C=O)cc3)n2)cc1)c1cnn(-c2ccc(Cl)cc2Cl)c(=O)c1Cl | > 100 µM |
| CC12CCC([C@H](C(O)C3CCCCC3)C1=O)C2(C)C (some centres not stated) | > 100 µM |
| C=C1CC[C@H](O)C(C)(C)[C@@H]1CC/C(C)=C/CC/C=C(\C)CC/C=C(\C)CCC=C(C)C | > 100 µM |
| c1ccc(CSP234N5CCN2CCN3CCN4CC5)c(CSP234N5CCN2CCN3CCN4CC5)c1 | > 100 µM |
| COc1cc2c(cc1OC)CCc1cc(OC)c(OC)cc1CC2 | > 100 µM |
| COc1ccc(N2C(=O)C3ON(C(C(N)=O)c4ccccc4)C(c4cc5ccccc5c5ccccc45)C3C2=O)cc1 (configuration not stated) | > 50 µM |
| O=c1[nH]c(Nc2nc3ccccc3[nH]2)nc2c1CCC2 | > 100 µM |
| O=C1N[C@@H](c2c[nH]c3cc(Br)ccc23)C(=O)N[C@H]1c1c[nH]c2cc(Br)ccc12 | > 100 µM |
| COc1ccccc1N1CCN(CCCN2/C(=C(\O)c3ccccc3)C(=O)c3c(C)cc(C)nc3S2(=O)=O)CC1 | > 100 µM |
| c1ccc2c(c1)nc1n2CNC1 | > 100 µM |
| Cc1ccc(C)c(COCCOCn2ccc(N)nc2=O)c1 | > 100 µM |
| CCOP(=O)(O)C1C(CO)OC(n2ccc(=O)[nH]c2=O)C1O (configuration not stated) | > 100 µM |
| O=C1NCCCNCCCNCCCNC(=O)c2cccc1n2 | > 100 µM |
| COC(=O)C1=C(C(=O)OC)c2cc(OC)ccc2C(C(=S)N(C)C)S1 (configuration not stated) | > 100 µM |
